Results taken from ChEMBL document CHEMBL4308920, “Optimizing the Pharmacological Profile of New Bifunctional Antihyperlipidemic/Antioxidant Morpholine Derivatives” (ACS Med Chem Lett, 2019).

Legend:
[1] = biological target: T1, Squalene synthase (Rattus norvegicus, UniProt Q02769); assay: Inhibition of SQS in rat liver microsomes assessed as reduction in [3H]FPP conversion to squalene preincubated for 10 mins followed by [3H]FPP addition and measured after 10 mins by scintillation counting method
T1 sequence (Q02769 whole entry): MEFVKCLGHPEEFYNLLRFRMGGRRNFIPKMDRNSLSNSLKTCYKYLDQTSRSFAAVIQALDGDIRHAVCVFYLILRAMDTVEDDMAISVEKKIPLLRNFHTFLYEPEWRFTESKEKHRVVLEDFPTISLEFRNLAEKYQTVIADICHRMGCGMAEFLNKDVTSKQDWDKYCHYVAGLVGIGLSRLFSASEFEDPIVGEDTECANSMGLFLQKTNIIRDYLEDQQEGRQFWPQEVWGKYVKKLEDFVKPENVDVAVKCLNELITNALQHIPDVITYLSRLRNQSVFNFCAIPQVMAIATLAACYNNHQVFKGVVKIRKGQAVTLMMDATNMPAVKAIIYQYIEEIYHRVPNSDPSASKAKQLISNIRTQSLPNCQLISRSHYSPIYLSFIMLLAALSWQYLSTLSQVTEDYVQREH

[2] = tested on: Liver; assay: Antioxidant activity in rat hepatic microsomes assessed as reduction in ferrous salt/ascorbic acid-induced lipid peroxidation of membrane lipids by measuring TBARS level after 45 mins by spectrophotometric method; type: functional, Microsome; conditions: 0.75 h
[3] = biological target: T1, Squalene synthase; assay: Inhibition of SQS in rat liver microsomes assessed as reduction in [3H]FPP conversion to squalene after 45 mins by liquid scintillation counting method
[4] = biological target: T2, Squalene synthase (Rattus norvegicus) (UniProt Q02769); assay: Potency index, ratio of 2-(4-(6-methoxynaphthalen-2-yl)phenyl)-4-methylmorpholin-2-ol hydrobromide IC50 to compound IC50 for inhibition of SQS in rat liver microsomes
T2 sequence (whole entry): T1 sequence (Q02769 whole entry)

[5] = biological target: T2, Squalene synthase (Rattus norvegicus); assay: Potency index, ratio of 4-methyl-2-(4-(naphthalen-2-yl)phenyl)morpholin-2-ol hydrobromide IC50 to compound IC50 for inhibition of SQS in rat liver microsomes
[6] = biological target: T2, Squalene synthase (Rattus norvegicus); assay: Potency index, ratio of 2-(biphenyl-4-yl)-4-methylmorpholin-2-ol hydrobromide IC50 to compound IC50 for inhibition of SQS in rat liver microsomes
[7] = tested on: Mus musculus; assay: Antihypercholesterolemic activity in C57BL/6 mouse model of Triton WR1339-induced hyperlipidemia assessed as reduction in plasma total cholesterol level at 84 umol/kg, ip measured after 24 hrs relative to control; type: functional; set-up: scale not given: the % may be the effect or the level left
[8] = tested on: Mus musculus; assay: In vivo antioxidant activity in C57BL/6 mouse model of Triton WR1339-induced hyperlipidemia assessed as increase in total antioxidant capacity in plasma at 84 umol/kg, ip measured after 24 hrs relative to control; type: functional
[9] = tested on: Mus musculus; assay: Anti-inflammatory activity in C57BL/6 mouse assessed as inhibition of carrageenan-induced hind paw edema at 300 umol/kg, ip treated immediately after carrageenan challenge measured after 3.5 hrs relative to control; type: functional; conditions: C57BL/6, ip
[10] = tested on: Mus musculus; assay: Antihyperlipidemic activity in C57BL/6 mouse model of Triton WR1339-induced hyperlipidemia assessed as reduction in plasma total triglyceride level at 84 umol/kg, ip measured after 24 hrs relative to control; type: functional; set-up: scale not given: the % may be the effect or the level left

Row | SMILES | IC50 [1] [µM] | IC50 [2] [µM] | also measured
1 | CN1CC(c2ccc(-c3ccccc3)cc2)OC2CCCCC21 (centres undefined) | 20.8 | 218 | 
2 | COc1cccc([C@H]2O[C@H](CC(=O)N3CCC(CC(=O)O)CC3)C(=O)N(CC(C)(C)COC(C)=O)c3ccc(Cl)cc32)c1OC [LAPAQUISTAT ACETATE] |  |  | IC50 [3]: 0.078 µM
3 | Cc1c(C)c2c(c(C)c1O)CCC(C)(C(=O)O)O2 (centres undefined) [TROLOX] |  | 25 | 
4 | CN1CCSC(c2ccc3ccccc3c2)C1 (centres undefined) | 25.2 | 178 | 
5 | CN1C=C(c2ccc(-c3ccccc3)cc2)OC2CCCCC21 (centres undefined) | 42 | 65.1 | 
6 | CC(C)(Sc1cc(C(C)(C)C)c(O)c(C(C)(C)C)c1)Sc1cc(C(C)(C)C)c(O)c(C(C)(C)C)c1 [PROBUCOL] |  | > 500 | 
7 | c1ccc(-c2ccc(C3CN4CCCCC4CO3)cc2)cc1 (centres undefined) | 7.5 | 179 | 
8 | CN1CCSC(c2ccc(-c3ccccc3)cc2)C1 (centres undefined) | 15 | 299 | 

Further lines, with some results ahead:

Row | IC50 [1] [µM] | IC50 [2] [µM] | SMILES | also measured
9 | > 100 | 86.8 | CN1CCOC(c2ccc(-c3ccccc3)cc2)C1 (centres undefined) | 
10 | 24.9 | 333 | CN1CCOC(OCCCO)(c2ccc(-c3ccccc3)cc2)C1 (centres undefined) | 
11 | 2.7 | 372 | CN1CCOC(OCCCS)(c2ccc(-c3ccccc3)cc2)C1 (centres undefined) | Ratio IC50 [4]: < 136; Ratio IC50 [5]: < 136; Ratio IC50 [6]: < 136
12 | 29.4 | 211 | COc1ccc2cc(-c3ccc(C4(OCCCO)CN(C)CCO4)cc3)ccc2c1 (centres undefined) | 
13 | 0.51 | 75.8 | CN1CCOC(OCCCO[N+](=O)[O-])(c2ccc(-c3ccc4ccccc4c3)cc2)C1 (centres undefined) | 
14 | 0.014 | 198 | Br.CN1CCOC(OCCCS)(c2ccc(-c3ccc4ccccc4c3)cc2)C1 (centres undefined) | Ratio IC50 [4]: < 136; Activity [7]: 67%; TAC [8]: 20%; inhibition in vivo at 300 µmol/kg [9]: 40%; Activity [10]: 25%; Ratio IC50 [5]: < 136; Ratio IC50 [6]: < 136
15 | 16.1 | 45 | COc1ccc2cc(-c3ccc(C4(OCCCO[N+](=O)[O-])CN(C)CCO4)cc3)ccc2c1 (centres undefined) | 
16 | 6.2 | 259 | CN1CCOC(OCCCO)(c2ccc(-c3ccc4ccccc4c3)cc2)C1 (centres undefined) | 
17 | 0.16 | 147 | COc1ccc2cc(-c3ccc(C4(OCCCS)CN(C)CCO4)cc3)ccc2c1 (centres undefined) | Ratio IC50 [4]: < 136; Ratio IC50 [5]: < 136; Ratio IC50 [6]: < 136
